Values joined by “and” are separate entries in the source; they are usually repeats but may differ in a detail not shown here. Equal values may be shown once.

In assay [1] the target is T1, Adenosine A2A receptor (Homo sapiens, UniProt P29274). Nature of the assay: Adenosine A2A receptor competitive binding assay (Tag-lite HTRF). As to conditions: Tag-lite adenosine A2A receptor ligand binding. A digest of the protocol:
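Tag-lite HTRF competition: donor-labelled cells expressing human A2A were mixed with serially diluted compounds (DMSO 0.6% in dilutions) and red fluorescent A2A antagonist ligand (60 nM stock). Incubated 2 h at room temperature before HTRF readout.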

The target in assay [2] is T1, Adenosine A2A receptor. Nature of the assay: cAMP assay in 293A cells stably expressing the adenosine A2A receptor (CGS21680 stimulation, HTRF). In kind it is cell-based. Details: expressed in transfected cells; host or cells: 293A cells (Invitrogen, Cat# R705-07) infected with A2A-expressing lentivirus (custom packaged by Biosettia), puromycin selected. As to conditions: 293A-A2AR cells, 0.1% BSA. In general terms: Cyclic AMP is a second messenger, typically raised through Gs and lowered through Gi signalling.

[3] abbreviates: 2 h room temperature, values separated by / are repeat determinations.
Setting [4] is: 8 nM CGS, values separated by / are repeat determinations, read-out: cAMP (nM) 0.1% BSA, 8 nM CGS.
Setting [5] is: 1 uM CGS, values separated by / are repeat determinations, read-out: cAMP (nM) 0.1% BSA, 1 uM CGS.
Setting [6] is: 8 nM CGS, read-out: cAMP (nM) 0.1% BSA, 8 nM CGS.
Setting [7] is: 1 uM CGS, read-out: cAMP (nM) 0.1% BSA, 1 uM CGS.

T1 sequence (P29274 whole entry): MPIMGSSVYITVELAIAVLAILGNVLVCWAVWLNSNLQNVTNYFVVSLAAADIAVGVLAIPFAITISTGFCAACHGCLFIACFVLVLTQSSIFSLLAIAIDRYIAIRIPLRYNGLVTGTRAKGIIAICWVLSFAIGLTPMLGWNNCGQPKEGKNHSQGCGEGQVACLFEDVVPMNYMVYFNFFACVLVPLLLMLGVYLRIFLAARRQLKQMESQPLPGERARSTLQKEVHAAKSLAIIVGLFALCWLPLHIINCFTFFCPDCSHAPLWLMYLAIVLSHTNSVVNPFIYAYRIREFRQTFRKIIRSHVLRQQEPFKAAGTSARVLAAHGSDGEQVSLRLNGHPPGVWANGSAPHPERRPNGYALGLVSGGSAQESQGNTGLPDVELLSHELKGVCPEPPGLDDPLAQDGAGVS

Turning to `Cc1cc(-c2c(OCc3cccc(=O)n3C(C)C)nc(N)nc2-c2ccc(F)cc2)cc(C(F)F)n1` [Example 186, 6-(((2-amino-5-(2-(difluoromethyl)-6-methylpyridin-4-yl)-6-(4-fluorophenyl)pyrimidin-4-yl)oxy)methyl)-1-isopropylpyridin-2(1H)-one], the IC50 came to 2.6 nM in assay [1] (setting [3]), 4.1 nM in assay [2] (setting [4]) and 10500 nM in assay [2] (setting [5]).

Consider `Cc1cc(-c2c(OCc3ncc(C#N)n3C(C)C)nc(N)nc2-c2ccc(F)cc2)cc(C(F)F)n1` [Example 191, 2-(((2-amino-5-(2-(difluoromethyl)-6-methylpyridin-4-yl)-6-(4-fluorophenyl)pyrimidin-4-yl)oxy)methyl)-1-isopropyl-1H-imidazole-5-carbonitrile], for which the IC50 in assay [1] (setting [3]) was determined as 39 nM; in assay [2] (setting [4]), 12 nM.

Take `Cc1cc(-c2c(OCc3ncc(S(C)(=O)=O)n3C(C)C)nc(N)nc2-c2ccc(F)cc2)cc(C(F)F)n1` [Example 192, 5-(2-(difluoromethyl)-6-methylpyridin-4-yl)-4-(4-fluorophenyl)-6-((1-isopropyl-5-(methylsulfonyl)-1H-imidazol-2-yl)methoxy)pyrimidin-2-amine]: the IC50 is 26 nM in assay [1] (setting [3]) and 9.7 nM in assay [2] (setting [4]).

For the molecule `Cc1cc(-c2c(OCc3nccn3C3CCC3)nc(N)nc2-c2ccc(F)cc2)cc(C(F)F)n1` [Example 194, 4-((1-cyclobutyl-1H-imidazol-2-yl)methoxy)-5-(2-(difluoromethyl)-6-methylpyridin-4-yl)-6-(4-fluorophenyl)pyrimidin-2-amine], the IC50 in assay [1] (setting [3]) is 0.6 nM and 1.7 nM; in assay [2] (setting [4]), 1.5 nM; in assay [2] (setting [5]) it was 151 nM.

`Cc1cc(-c2c(OCC3CCC(C)(O)CC3)nc(N)nc2-c2ccc(F)cc2)cc(C(F)F)n1` (stereo not drawn) [Example 197, 4-(((2-amino-5-(2-(difluoromethyl)-6-methylpyridin-4-yl)-6-(4-fluorophenyl)pyrimidin-4-yl)oxy)methyl)-1-methylcyclohexan-1-ol]: the values for the IC50 in assay [1] (HTRF) and in assay [2] (setting [6]) were 19.1 nM and 6.3 nM, respectively.

For the molecule `CCN(CC(C)O)C(=O)COc1nc(N)nc(-c2ccc(F)cc2)c1-c1cc(C)nc(C(F)F)c1` (stereo not drawn) [Example 198, 2-((2-amino-5-(2-(difluoromethyl)-6-methylpyridin-4-yl)-6-(4-fluorophenyl)pyrimidin-4-yl)oxy)-N-ethyl-N-(2-hydroxypropyl)acetamide], the IC50 turned out to be 14.9 nM in assay [1] (HTRF) and 10 nM in assay [2] (setting [6]).

`Cc1cc(-c2c(OCC(CO)N(C)c3ccccn3)nc(N)nc2-c2ccc(F)cc2)cc(C(F)F)n1` (stereo not drawn) [Example 199, 3-((2-amino-5-(2-(difluoromethyl)-6-methylpyridin-4-yl)-6-(4-fluorophenyl)pyrimidin-4-yl)oxy)-2-(methyl(pyridin-2-yl)amino)propan-1-ol]: the figures for the IC50 in assay [1] (HTRF) and in assay [2] (setting [7]) were 7.2 nM and 148 nM, respectively.

Consider `Cc1cc(-c2c(OCC(O)CN(C)c3ccccn3)nc(N)nc2-c2ccc(F)cc2)cc(C(F)F)n1` (stereo not drawn) [Example 201, 1-((2-amino-5-(2-(difluoromethyl)-6-methylpyridin-4-yl)-6-(4-fluorophenyl)pyrimidin-4-yl)oxy)-3-(methyl(pyridin-2-yl)amino)propan-2-ol], for which the IC50 in assay [1] (HTRF) is 1 nM and 6.5 nM; in assay [2] (setting [6]) it was 4.2 nM and 3.5 nM.

With `CCc1nnn(CC)c1COc1nc(N)nc(-c2ccc(F)cc2)c1-c1cc(C)nc(C(F)F)c1` [Example 202, 4-((1,4-diethyl-1H-1,2,3-triazol-5-yl)methoxy)-5-(2-(difluoromethyl)-6-methylpyridin-4-yl)-6-(4-fluorophenyl)pyrimidin-2-amine], the IC50 turned out to be 3.5 nM in assay [1] (HTRF) and 16 nM in assay [2] (setting [6]).

Regarding `Cc1cc(-c2c(OCc3nc(C#N)cn3C(C)C)nc(N)nc2-c2ccc(F)cc2)cc(C(F)F)n1` [Example 203], the IC50 in assay [1] (HTRF) is 3 nM; in assay [2] (setting [6]), 9.6 nM.

On to `Cc1cc(-c2c(OCc3nccn3C(C)C(=O)O)nc(N)nc2-c2ccc(F)cc2)cc(C(F)F)n1` (stereo not drawn) [Example 205, 2-(2-(((2-amino-5-(2-(difluoromethyl)-6-methylpyridin-4-yl)-6-(4-fluorophenyl)pyrimidin-4-yl)oxy)methyl)-1H-imidazol-1-yl)propanoic acid], for which the results for the IC50 in assay [1] (HTRF) and in assay [2] (setting [6]) were 12 nM and 29 nM, respectively.

`Cc1cc(-c2c(O)nc(N)nc2-c2ccc(F)cc2)cc(C(F)F)n1` [Example 206, 2-amino-5-(2-(difluoromethyl)-6-methylpyridin-4-yl)-6-(4-fluorophenyl)pyrimidin-4-ol]: the IC50 stood at 9.2 nM in assay [1] (HTRF), 10 nM in assay [2] (setting [6]) and 4660 nM in assay [2] (setting [7]).

As for `Cc1cc(-c2c(OCc3nccn3CC(C)C(=O)O)nc(N)nc2-c2ccc(F)cc2)cc(C(F)F)n1` (stereo not drawn) [Example 207, 3-(2-(((2-amino-5-(2-(difluoromethyl)-6-methylpyridin-4-yl)-6-(4-fluorophenyl)pyrimidin-4-yl)oxy)methyl)-1H-imidazol-1-yl)-2-methylpropanoic acid], the values for the IC50 in assay [1] (HTRF) and in assay [2] (setting [6]) were 28 nM and 29 nM, respectively.

As to `Cc1cc(-c2c(OCc3cn(C(C)C)nn3)nc(N)nc2-c2ccc(F)cc2)cc(C(F)F)n1` [Example 208, 5-(2-(difluoromethyl)-6-methylpyridin-4-yl)-4-(4-fluorophenyl)-6-((1-isopropyl-1H-1,2,3-triazol-4-yl)methoxy)pyrimidin-2-amine], the IC50 was 3.4 nM in assay [1] (HTRF); 1.4 nM and 1 nM in assay [2] (setting [6]); 394 nM in assay [2] (setting [7]).

As for `Cc1cc(-c2c(OCc3nccn3C3CC(O)C3)nc(N)nc2-c2ccc(F)cc2)cc(C(F)F)n1` (stereo not drawn) [Example 210, 3-(2-(((2-amino-5-(2-(difluoromethyl)-6-methylpyridin-4-yl)-6-(4-fluorophenyl)pyrimidin-4-yl)oxy)methyl)-1H-imidazol-1-yl)cyclobutan-1-ol], the IC50 in assay [1] (HTRF) is 3.4 nM and 5.4 nM; in assay [2] (setting [6]) it was 3.7 nM and 5.4 nM; in assay [2] (setting [7]), 2250 nM.

As for `Cc1cc(-c2c(OCc3nc(S(C)(=O)=O)cn3C(C)C)nc(N)nc2-c2ccc(F)cc2)cc(C(F)F)n1` [Example 211, 5-(2-(difluoromethyl)-6-methylpyridin-4-yl)-4-(4-fluorophenyl)-6-((1-isopropyl-4-(methylsulfonyl)-1H-imidazol-2-yl)methoxy)pyrimidin-2-amine], the IC50 in assay [1] (HTRF) is 47 nM; in assay [2] (setting [6]), 7.3 nM.

Regarding `Cc1cc(-c2c(OCCOc3ccnc(N(C)CCO)c3)nc(N)nc2-c2ccc(F)cc2)cc(C(F)F)n1` [Example 212, 2-((4-(2-((2-amino-5-(2-(difluoromethyl)-6-methylpyridin-4-yl)-6-(4-fluorophenyl)pyrimidin-4-yl)oxy)ethoxy)pyridin-2-yl)(methyl)amino)ethan-1-ol], the results for the IC50 in assay [1] (HTRF) and in assay [2] (setting [6]) were 174 nM and 62 nM, respectively.

Turning to `Cc1cc(-c2c(OCCOc3cccc(N(C)CCO)n3)nc(N)nc2-c2ccc(F)cc2)cc(C(F)F)n1` [Example 213, 2-((6-(2-((2-amino-5-(2-(difluoromethyl)-6-methylpyridin-4-yl)-6-(4-fluorophenyl)pyrimidin-4-yl)oxy)ethoxy)pyridin-2-yl)(methyl)amino)ethan-1-ol], the IC50 in assay [1] (HTRF) came out at 9.3 nM; in assay [2] (setting [6]), 3.4 nM; in assay [2] (setting [7]), 7.16 nM.

On to `Cc1cc(-c2c(OCc3ccn(CC4CC4)n3)nc(N)nc2-c2ccc(F)cc2)cc(C(F)F)n1` [Example 214], for which the IC50 in assay [1] (HTRF) was found to be 4.5 nM; in assay [2] (setting [7]), 327 nM.

`Cc1cc(-c2c(OCc3nccn3CS(C)(=O)=O)nc(N)nc2-c2ccc(F)cc2)cc(C(F)F)n1` [Example 215, 5-(2-(difluoromethyl)-6-methylpyridin-4-yl)-4-(4-fluorophenyl)-6-((1-((methylsulfonyl)methyl)-1H-imidazol-2-yl)methoxy)pyrimidin-2-amine]: the IC50 came out at 9.7 nM in assay [1] (HTRF) and 965 nM in assay [2] (setting [7]).

Consider `Cc1cc(-c2c(OCc3ccc(C(C)(C)O)cn3)nc(N)nc2-c2ccc(F)cc2)cc(C(F)F)n1` [Example 217, 2-(6-(((2-amino-5-(2-(difluoromethyl)-6-methylpyridin-4-yl)-6-(4-fluorophenyl)pyrimidin-4-yl)oxy)methyl)pyridin-3-yl)propan-2-ol], for which the figures for the IC50 in assay [1] (HTRF) and in assay [2] (setting [7]) were 21 nM and 6500 nM, respectively.

As for `Cc1cc(-c2c(OCc3ccncn3)nc(N)nc2-c2ccc(F)cc2)cc(C(F)F)n1` [Example 218, 5-(2-(difluoromethyl)-6-methylpyridin-4-yl)-4-(4-fluorophenyl)-6-(pyrimidin-4-ylmethoxy)pyrimidin-2-amine], the IC50 in assay [1] (HTRF) was 1.7 nM; in assay [2] (setting [7]), 76 nM and 48 nM.

Consider `CCn1cnc(COc2nc(N)nc(-c3ccc(F)cc3)c2-c2cc(C)nc(C(F)F)c2)n1` [Example 221, 5-(2-(difluoromethyl)-6-methyipyridin-4-yl)-4-((1-ethyl-1H-1,2,4-triazol-3-yl)methoxy)-6-(4-fluorophenyl)pyrimidin-2-amine], for which the IC50 was 24 nM in assay [1] (HTRF) and 444 nM in assay [2] (setting [7]).

As to `Cc1cc(-c2c(OCc3cccnn3)nc(N)nc2-c2ccc(F)cc2)cc(C(F)F)n1` [Example 223, 5-(2-(difluoromethyl)-6-methylpyridin-4-yl)-4-(4-fluorophenyl)-6-(pyridazin-3-ylmethoxy)pyrimidin-2-amine], the IC50 is 4.1 nM in assay [1] (HTRF) and 788 nM in assay [2] (setting [7]).

The values are drawn from patent publication US20210355104A1, “ADENOSINE RECEPTOR BINDING COMPOUNDS” (Nikang Therapeuticsm Inc., priority 2018, published 2021).
